Legend:
[1] = test system: SARS-CoV-2 Wk-521 strain; experiment: Anti-SARS-CoV-2 assay (extracellular viral RNA, VeroE6/TMPRSS2 cells); conditions: for IC90: read-out: Anti-SARS-CoV-2 activity IC90, MOI 0.003, 24 h, extracellular viral RNA, mean ± SD, triplicate; for IC50: read-out: Anti-SARS-CoV-2 activity IC50, MOI 0.003, 24 h, extracellular viral RNA, mean ± SD, triplicate
[2] = Cell viability of VeroE6/TMPRSS2 cells (DAPI staining, cell count); format: cell-based; conditions: chlorocebus sabaeus, 24 h, DAPI staining, surviving cell number, read-out: Cytotoxicity CC50
Protocol: (§1) The number of cells was quantified based on the measurement of the DNA content.[20] Cell growth inhibition was evaluated as the ratio of the absorbance of the sample to that of the control. […] The cells were washed with PBS and fixed in 4% paraformaldehyde. The resultant cells were stained with 0.02% 4′,6-diamidino-2-phenylindole (DAPI) and washed with PBS four times. The number of surviving cells was quantified with a high-content imaging analyzer, ImageXpress Micro Confocal (Molecular Device, San Jose, CA, USA).

[3] = MTT assay, cytotoxicity against host Huh7.5.1 cells; format: cell-based; conditions: human
Protocol: (§2) The anti-HCV assay was performed as described previously.[3] In brief, Huh7.5.1 cells were treated with HCV JFH-1 at a multiplicity of infection (MOI) of 0.15 for 4 h. […] The infectivity of HCV in the medium was quantified by a focus-forming assay with Huh7.5.1 cells. Cell viability at 72 h post-treatment was simultaneously measured by the MTT assay.[16] Cell growth inhibition was evaluated as the ratio of the absorbance of the sample to that of the control.

[4] = test system: HCV JFH-1; experiment: Anti-HCV assay (infectivity of HCV in the medium, focus-forming assay); format: cell-based; conditions: Hepatitis C virus, Huh-7.5.1; Huh7.5.1 cells, HCV JFH-1 MOI 0.15, 72 h; mean ± SD, triplicate
Protocol: as §2

[5] = test system: VeroE6/TMPRSS2 cells; experiment: Cell viability of VeroE6/TMPRSS2 cells (DAPI staining, cell count); format: cell-based
Protocol: as §1

[6] = test system: LXR; experiment: LXRE-driven luciferase reporter assay in Huh-7 cells; conditions: 48 h
[7] = test system: recombinant LXRα; parameters: method as in PMID 27489280; conditions: cited from earlier work
[8] = test system: recombinant LXRβ; parameters: method as in PMID 27489280; conditions: cited from earlier work
[9] = test system: influenza A virus subtype H1N1; parameters: method as in PMID 25681711; conditions: by targeting viral hemagglutinin; cited from earlier work
[10] = test system: HCV JFH-1; parameters: method as in PMID 27489280; conditions: cited from earlier work
[11] = test system: poliovirus; conditions: cited from earlier work

C=c1[nH]c(=O)/c(=C/c2ccc(C(C)(C)C)cc2)[nH]c1=O [1g]
Anti-SARS-CoV-2 activity (in words) [1]: did not show anti-SARS-CoV-2 activity | IC90 [1]: > 40 µM | CC50 at 24 h [2]: > 70 µM | CC50 at 72 h [3]: > 20 µM | IC50 [4]: 1.1 ± 0.34 µM | IC90 [4]: > 20 µM | melting point: 212 to 213 °C

C=c1[nH]c(=O)/c(=C/c2ccc(C(=O)OC)cc2)[nH]c1=O [1l]
Anti-SARS-CoV-2 activity (in words) [1]: exhibited anti-SARS-CoV-2 activity | IC50 [1]: 8.4 ± 2.1 µM | IC90 [1]: 14.1 ± 1.8 µM | CC50 at 24 h [2]: > 50 µM | CC50 at 72 h [3]: > 20 µM | IC50 [4]: 1.2 ± 0.16 µM | IC90 [4]: 6.5 ± 1.84 µM | melting point: 248 to 249 °C

C=c1[nH]c(=O)/c(=C/c2ccccc2)[nH]c1=O [1c]
Anti-SARS-CoV-2 activity (in words) [1]: exhibited anti-SARS-CoV-2 activity | IC50 [1]: 13.6 ± 3.2 µM | IC90 [1]: 20.3 ± 3.2 µM | CC50 at 24 h [2]: 40.1 ± 10.5 µM | CC50 at 72 h [3]: > 20 µM | IC50 [4]: 0.0059 ± 0.0042 µM | IC90 [4]: > 20 µM | melting point: 242 to 243 °C

C=c1[nH]c(=O)/c(=C/c2ccsc2)[nH]c1=O [1e]
CC50 at 24 h [2]: 42.2 ± 7.9 µM | Toxicity toward the host cells (in words) [5]: showed toxicity toward the host cells | CC50 at 72 h [3]: > 20 µM | IC50 [4]: 1.4 ± 0.48 µM | IC90 [4]: > 20 µM | melting point: 242 to 243 °C

C=c1[nH]c(=O)/c(=C/c2ccc(OC)c(OC)c2)[nH]c1=O [1j]
Anti-SARS-CoV-2 activity (in words) [1]: exhibited anti-SARS-CoV-2 activity | IC50 [1]: 10.3 ± 3.7 µM | IC90 [1]: 20.1 ± 8.5 µM | CC50 at 24 h [2]: 62.8 ± 17.4 µM | CC50 at 72 h [3]: > 20 µM | IC50 [4]: 2 ± 0.068 µM | IC90 [4]: > 20 µM | melting point: 237 to 238 °C

C=CC(C)(C)c1[nH]c2ccccc2c1C[C@@H]1NC(=O)[C@H](C)NC1=O [compound 8, preechinulin]
IC50 [1]: > 40 µM | IC90 [1]: > 40 µM | CC50 at 24 h [2]: > 100 µM | CC50 at 72 h [3]: > 20 µM | IC50 [4]: > 20 µM | IC90 [4]: > 20 µM

C=c1[nH]c(=O)/c(=C/c2cc(C(C)(C)C)cc(C(C)(C)C)c2)[nH]c1=O [1f]
Anti-SARS-CoV-2 activity (in words) [1]: did not show anti-SARS-CoV-2 activity | IC90 [1]: > 40 µM | CC50 at 24 h [2]: > 100 µM | CC50 at 72 h [3]: > 20 µM | IC50 [4]: 0.015 ± 0.019 µM | IC90 [4]: > 20 µM | melting point: 204 to 205 °C

C=CC(C)(C)c1[nH]c2ccccc2c1/C=C1\NC(=O)C(C)(OC)NC1=O (stereo not shown) [compound 6, variecolorin H]
IC50 [1]: > 40 µM | IC90 [1]: > 40 µM | CC50 at 24 h [2]: > 100 µM | CC50 at 72 h [3]: > 20 µM | IC50 [4]: > 20 µM | IC90 [4]: > 20 µM

C=c1[nH]c(=O)/c(=C/c2c[nH]c3ccccc23)[nH]c1=O [1b, (Z)-3-[(1H-Indol-3-yl)methylene]-6-methylenepiperazine-2,5-dione]
Anti-SARS-CoV-2 activity (in words) [1]: did not show anti-SARS-CoV-2 activity | IC50 [1]: > 40 µM | IC90 [1]: > 40 µM | CC50 at 24 h [2]: > 100 µM | CC50 at 72 h [3]: > 20 µM | IC50 [4]: 2.2 ± 0.64 µM | IC90 [4]: > 20 µM | melting point: 285 to 286 °C

C=c1[nH]c(=O)/c(=C/c2ccc(N(C)C)cc2)[nH]c1=O [1m]
CC50 at 24 h [2]: 28.3 ± 6.2 µM | Toxicity toward the host cells (in words) [5]: showed toxicity toward the host cells | CC50 at 72 h [3]: > 20 µM | IC50 [4]: 1.2 ± 0.54 µM | IC90 [4]: > 20 µM | melting point: 225 to 227 °C

C=c1[nH]c(=O)/c(=C/c2ccc3ccccc3c2)[nH]c1=O [1p]
Anti-SARS-CoV-2 activity (in words) [1]: did not show anti-SARS-CoV-2 activity | IC50 [1]: > 40 µM | IC90 [1]: > 40 µM | CC50 at 24 h [2]: 40.7 ± 20.1 µM | CC50 at 72 h [3]: > 20 µM | IC50 [4]: 0.26 ± 0.11 µM | IC90 [4]: 1.9 ± 0.65 µM | melting point: 216 to 217 °C

C=c1[nH]c(=O)/c(=C/c2ccoc2)[nH]c1=O [1d]
Anti-SARS-CoV-2 activity (in words) [1]: exhibited anti-SARS-CoV-2 activity | IC50 [1]: 9.3 ± 6.2 µM | IC90 [1]: 21.2 ± 9 µM | CC50 at 24 h [2]: > 80 µM | CC50 at 72 h [3]: > 20 µM | IC50 [4]: 1.4 ± 0.34 µM | IC90 [4]: > 20 µM | melting point: 242 to 243 °C

O=S(=O)(c1ccccc1)N(CC(F)(F)F)c1ccc(C(O)(C(F)(F)F)C(F)(F)F)cc1 [T0901317]
LXRE-driven luciferase activity (agonist) [6]: increased the LXRE-driven luciferase activity

C=c1[nH]c(=O)/c(=C/c2ccc(-c3ccccc3)cc2)[nH]c1=O [1o]
Anti-SARS-CoV-2 activity (in words) [1]: exhibited anti-SARS-CoV-2 activity | IC50 [1]: 20.8 ± 8 µM | IC90 [1]: > 40 µM | CC50 at 24 h [2]: > 100 µM | CC50 at 72 h [3]: > 20 µM | IC50 [4]: 4.9 ± 0.66 µM | IC90 [4]: > 20 µM | melting point: 229 to 230 °C

C=c1[nH]c(=O)/c(=C/c2cc(OC)c(OC)c(OC)c2)[nH]c1=O [1k]
Anti-SARS-CoV-2 activity (in words) [1]: did not show anti-SARS-CoV-2 activity | IC90 [1]: > 40 µM | CC50 at 24 h [2]: 78.8 ± 4.5 µM | CC50 at 72 h [3]: > 20 µM | IC50 [4]: 1.1 ± 0.6 µM | IC90 [4]: > 20 µM | melting point: 219 to 221 °C

C=CC(C)(C)c1[nH]c2ccccc2c1/C=c1\[nH]c(=O)c(=C)[nH]c1=O [1a, neoechinulin B]
IC50 [1]: 32.9 ± 13.2 µM | IC90 [1]: 45.6 ± 7.4 µM | Interaction with LXRα (SPR) [7]: interacts with recombinant LXRα and LXRβ | CC50 at 24 h [2]: > 70 µM | CC50 at 72 h [3]: > 20 µM | IC50 [4]: 4.7 ± 1.4 µM | IC90 [4]: > 20 µM | Interaction with LXRβ (SPR) [8]: interacts with recombinant LXRα and LXRβ | Entry of influenza A virus subtype H1N1 [9]: inhibit the entry of influenza A virus subtype H1N1 | Antiviral effects against HCV (earlier report) [10]: exhibited antiviral effects against hepatitis C virus (HCV) | Poliovirus RNA replication in DMVs [11]: reduced the RNA replication of poliovirus

C=c1[nH]c(=O)/c(=C/c2ccc(OC)cc2)[nH]c1=O [1i]
CC50 at 24 h [2]: 47.2 ± 0.6 µM | Toxicity toward the host cells (in words) [5]: showed toxicity toward the host cells | CC50 at 72 h [3]: > 20 µM | IC50 [4]: 1.3 ± 0.42 µM | IC90 [4]: > 20 µM | melting point: 229 to 231 °C

C=c1[nH]c(=O)/c(=C/c2ccc(C)cc2)[nH]c1=O [1h]
Anti-SARS-CoV-2 activity (in words) [1]: exhibited anti-SARS-CoV-2 activity | IC50 [1]: 6 ± 2.4 µM | IC90 [1]: 16.3 ± 6.2 µM | CC50 at 24 h [2]: 63.1 ± 17.9 µM | CC50 at 72 h [3]: > 20 µM | IC50 [4]: 2.7 ± 1.4 µM | IC90 [4]: > 20 µM | melting point: 237 to 239 °C

C=c1[nH]c(=O)/c(=C/c2ccc(C(F)(F)F)cc2)[nH]c1=O [1n]
CC50 at 24 h [2]: 30.1 ± 7.3 µM | Toxicity toward the host cells (in words) [5]: showed toxicity toward the host cells | CC50 at 72 h [3]: > 20 µM | IC50 [4]: 1.6 ± 0.32 µM | IC90 [4]: 9.7 ± 1.06 µM | melting point: 244 to 245 °C

From PMC8751641, “Synthesis and Antiviral Activities of Neoechinulin B and Its Derivatives” (Journal of Natural Products, 2021)
